Results on three compounds are retold here after BindingDB's records for patent US20230322706 (Lg Chem, 2023).

pIC50: −log10 of the molar value.

For orientation: pIC50 means −log10 of the IC50, conventionally taken in molar units.

The assay addresses T1, Diacylglycerol O-acyltransferase 2 (Homo sapiens, UniProt Q96PD7).
T1 sequence (Q96PD7 whole entry): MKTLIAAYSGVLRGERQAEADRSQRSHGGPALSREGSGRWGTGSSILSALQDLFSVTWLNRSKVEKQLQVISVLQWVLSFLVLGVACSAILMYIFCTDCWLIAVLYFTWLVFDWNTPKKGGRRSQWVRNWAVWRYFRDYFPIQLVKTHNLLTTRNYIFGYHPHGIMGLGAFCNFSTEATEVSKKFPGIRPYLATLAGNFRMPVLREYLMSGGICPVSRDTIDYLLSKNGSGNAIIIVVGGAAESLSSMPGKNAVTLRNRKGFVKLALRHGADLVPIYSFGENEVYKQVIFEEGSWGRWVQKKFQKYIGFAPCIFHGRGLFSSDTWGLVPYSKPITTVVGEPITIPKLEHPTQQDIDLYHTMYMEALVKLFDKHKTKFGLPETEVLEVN
Description: Measurement of Inhibitory Effect Against DGAT2 Enzyme Activity. How it is done: 1. […] In order to prepare the pBacPAK9-DGAT2, which is DGAT2 expression vector, the human DGAT2 gene amplified by polymerase chain reaction (PCR) was cloned into the EcoR1 and Xho1 sites of the pBacPAK9 (clonctech) vector. The nucleotide sequence of the primers used in PCR was the forward primer 5′ […] […] and the reverse primer 5′ […]. The composition of the reaction solution was to contain 50 ng of cDNA clone (OriGene), 200 μM of dATP, dCTP, dTTP, dGTP, 200 nM of each primer, 1 unit of Tag DNA Polymerase (Toyobo), 1x PCR buffer, and the final volume was adjusted to 20 μl. The reaction conditions were denatured at 95° C. for 5 minutes, followed by 30 times of 94° C. for 20 seconds, 60° C. for 20 seconds, and 72° C. for 90 seconds, followed by further reaction at 72° C. for 7 minutes. 2. […] Recombinant human DGAT2 protein was expressed in Sf-21 cells, which are insect cells, by using the BacPack baculovirus expression system (Clontech). The brief manufacturing process is as follows. First, the pBacPAK9-DGAT2 expression vector was transfected with BacPAK6 virus DNA (Bsu36I digest) into sf21 cells using Bacfectin to prepare a recombinant DGAT2 expressing baculovirus. The thus prepared baculovirus was infected with Sf-21 cells at 10 MOI (multiplicity of infection), and after 72 hours, infected insect cells were collected and membrane proteins were isolated. […] Protein concentration was quantified by using the BCA Protein Assay Kit (Thermo Scientific). […] The next day, the amplified scintillation signal (cpm) in Topcounter (Packard) was measured to measure the degree of production of [14C]-labeled triacyl glycerol (TG) as a reaction product. The measured value when the compound was not treated was used as a positive control, and the measured value of the compound treated group was calculated as a relative % to measure the inhibition effect of the compound on TG production.

Take `CCOC(=O)C(F)(F)c1ccc(CC(=O)Nc2cncc(-c3cncc(Oc4ccccc4OCC)c3)n2)cc1` [US20230322706, Example 6]: the pIC50 is 6.92.
For `CCOc1ccccc1Oc1cccc(-c2cncc(NC(=O)Cc3ccc(C(F)(F)C(=O)O)cc3)n2)c1` [US20230322706, Example 14], the negative logarithm of the IC50 (pIC50) was 5.51.
To `CCOc1ccccc1Oc1cccc(-c2cncc(NC(=O)/C=C/c3ccc(C(C)(C)C(=O)O)cc3)n2)c1` [US20230322706, Example 17] belongs 6.62.
